The text below walks through data of paper PMC5218480 (PLoS ONE, 2017).

In the assay the test system is MV-4-11 cells. The experiment in a line: Gene expression microarray analysis (Affymetrix PrimeView) and GSEA. It counts as cell-based, human. More on the design: RFU PODN (11730768_x_at) / Fold change /veh PODN (11730768_x_at) / RFU LINC00158 (11744669_a_at) / Fold change /veh LINC00158 (11744669_a_at) / RFU DUSP10 (11751237_a_at) / Fold change /veh DUSP10 (11751237_a_at) / RFU ID3 (11757404_x_at) / Fold change /veh ID3 (11757404_x_at) / RFU PLEKHG5 (11737974_s_at) / Fold change /veh PLEKHG5 (11737974_s_at) / RFU LRRC4B (11730491_at) / Fold change /veh LRRC4B (11730491_at) / RFU GIMAP4 (11747438_a_at) / Fold change /veh GIMAP4 (11747438_a_at) / RFU KRT8 (11758183_x_at) / Fold change /veh KRT8 (11758183_x_at) / RFU CNN1 (11734310_a_at) / Fold change /veh CNN1 (11734310_a_at) / RFU VPS37D (11726825_at) / Fold change /veh VPS37D (11726825_at) / RFU C10orf10 (11716522_x_at) / Fold change /veh C10orf10 (11716522_x_at) / RFU KIR2DL2 /// KIR2DL4 /// KIR2DL5A /// KIR2DL5B /// KIR2DS1 /// KIR2DS2 /// KIR2DS3 /// KIR2DS4 /// KIR3DL3 /// KIR3DL3 /// KIR3DS1 (11738374_at) / Fold change /veh KIR2DL2 /// KIR2DL4 /// KIR2DL5A /// KIR2DL5B /// KIR2DS1 /// KIR2DS2 /// KIR2DS3 /// KIR2DS4 /// KIR3DL3 /// KIR3DL3 /// KIR3DS1 (11738374_at) / RFU C1QL1 (11718748_at) / Fold change /veh C1QL1 (11718748_at) / RFU TMPRSS4 (11747572_a_at) / Fold change /veh TMPRSS4 (11747572_a_at) / RFU HAMP (11756126_x_at) / Fold change /veh HAMP (11756126_x_at) / RFU RNFT2 (11725882_a_at) / Fold change /veh RNFT2 (11725882_a_at) / RFU NR4A2 (11747474_a_at) / Fold change /veh NR4A2 (11747474_a_at) / RFU ABCC12 (11746883_a_at) / Fold change /veh ABCC12 (11746883_a_at) / RFU TMEM136 (11760407_x_at) / Fold change /veh TMEM136 (11760407_x_at) / RFU CLDN22 /// WWC2 (11732394_at) / Fold change /veh CLDN22 /// WWC2 (11732394_at) / RFU HLA-DPB1 (11760878_x_at) / Fold change /veh HLA-DPB1 (11760878_x_at) / RFU SPINT1 (11716480_a_at) / Fold change /veh SPINT1 (11716480_a_at) / RFU GAP43 (11754022_s_at) / Fold change /veh GAP43 (11754022_s_at) / RFU A4GNT (11735810_at) / Fold change /veh A4GNT (11735810_at) / RFU PRB3 (11715151_x_at) / Fold change /veh PRB3 (11715151_x_at) / RFU TUBB4B (11761932_at) / Fold change /veh TUBB4B (11761932_at) / RFU CAPN14 (11732068_a_at) / Fold change /veh CAPN14 (11732068_a_at) / RFU TMCC2 (11721928_a_at) / Fold change /veh TMCC2 (11721928_a_at) / RFU IRGQ (11745062_a_at) / Fold change /veh IRGQ (11745062_a_at) / RFU FAM174B (11720279_a_at) / Fold change /veh FAM174B (11720279_a_at) / RFU TMPRSS4 (11748680_a_at) / Fold change /veh TMPRSS4 (11748680_a_at) / RFU FAM212B (11763350_a_at) / Fold change /veh FAM212B (11763350_a_at) / RFU PLEKHG5 (11743358_a_at) / Fold change /veh PLEKHG5 (11743358_a_at) / RFU ZSCAN30 (11745921_a_at) / Fold change /veh ZSCAN30 (11745921_a_at) / RFU CMKLR1 (11741424_a_at) / Fold change /veh CMKLR1 (11741424_a_at) / RFU LOC101060620 /// MAPK8IP1 (11723275_at) / Fold change /veh LOC101060620 /// MAPK8IP1 (11723275_at) / RFU SPTSSB (11747773_x_at) / Fold change /veh SPTSSB (11747773_x_at) / RFU PRSS12 (11739890_at) / Fold change /veh PRSS12 (11739890_at) / RFU BIN1 (11741810_x_at) / Fold change /veh BIN1 (11741810_x_at) / RFU WNT11 (11732464_a_at) / Fold change /veh WNT11 (11732464_a_at) / RFU C10orf10 (11716521_a_at) / Fold change /veh C10orf10 (11716521_a_at) / RFU C5orf56 (11738089_at) / Fold change /veh C5orf56 (11738089_at) / RFU CYB561 (11721691_x_at) / Fold change /veh CYB561 (11721691_x_at) / RFU ANKRD19P (11752326_a_at) / Fold change /veh ANKRD19P (11752326_a_at) / RFU OR2T12 /// OR2T33 /// OR2T8 (11738714_s_at) / Fold change /veh OR2T12 /// OR2T33 /// OR2T8 (11738714_s_at) / RFU VCAN (11748164_a_at) / Fold change /veh VCAN (11748164_a_at) / RFU JSRP1 (11732532_at) / Fold change /veh JSRP1 (11732532_at) / RFU KRTAP10-11 (11738290_x_at) / Fold change /veh KRTAP10-11 (11738290_x_at) / RFU MYO3A (11730013_a_at) / Fold change /veh MYO3A (11730013_a_at) / RFU EBF3 (11725865_a_at) / Fold change /veh EBF3 (11725865_a_at) / RFU CAMK2N1 (11719241_x_at) / Fold change /veh CAMK2N1 (11719241_x_at) / RFU C5orf56 (11738088_a_at) / Fold change /veh C5orf56 (11738088_a_at) / RFU OLFML3 (11715873_a_at) / Fold change /veh OLFML3 (11715873_a_at) / RFU LOC100653217 /// NTM (11731650_a_at) / Fold change /veh LOC100653217 /// NTM (11731650_a_at) / RFU MAPK11 (11762145_a_at) / Fold change /veh MAPK11 (11762145_a_at) / RFU FIZ1 (11724087_x_at) / Fold change /veh FIZ1 (11724087_x_at) / RFU OASL (11726364_x_at) / Fold change /veh OASL (11726364_x_at) / RFU SOX15 (11748057_x_at) / Fold change /veh SOX15 (11748057_x_at) / RFU CD79A (11719716_a_at) / Fold change /veh CD79A (11719716_a_at) / RFU HIST1H1D (11736915_at) / Fold change /veh HIST1H1D (11736915_at) / RFU CASKIN2 (11723855_a_at) / Fold change /veh CASKIN2 (11723855_a_at) / RFU LOC730098 (11760151_x_at) / Fold change /veh LOC730098 (11760151_x_at) / RFU OR4N2 (11742367_at) / Fold change /veh OR4N2 (11742367_at) / RFU PRRT2 (11749266_a_at) / Fold change /veh PRRT2 (11749266_a_at) / RFU SNX32 (11753110_a_at) / Fold change /veh SNX32 (11753110_a_at) / RFU CDHR5 (11726645_a_at) / Fold change /veh CDHR5 (11726645_a_at) / RFU RCAN1 (11760418_a_at) / Fold change /veh RCAN1 (11760418_a_at) / RFU FAM167A (11723789_a_at) / Fold change /veh FAM167A (11723789_a_at) / RFU FAM26E (11764081_at) / Fold change /veh FAM26E (11764081_at) / RFU ISYNA1 (11749810_s_at) / Fold change /veh ISYNA1 (11749810_s_at) / RFU ACY1 (11761880_at) / Fold change /veh ACY1 (11761880_at) / RFU 11764098_at / Fold change /veh 11764098_at / RFU SAMD14 (11745864_x_at) / Fold change /veh SAMD14 (11745864_x_at) / RFU NPB (11741838_a_at) / Fold change /veh NPB (11741838_a_at) / RFU TMPRSS6 (11731388_a_at) / Fold change /veh TMPRSS6 (11731388_a_at) / RFU KRTAP10-2 (11738614_at) / Fold change /veh KRTAP10-2 (11738614_at) / RFU ARHGAP8 /// PRR5-ARHGAP8 (11727945_x_at) / Fold change /veh ARHGAP8 /// PRR5-ARHGAP8 (11727945_x_at) / RFU KRTAP5-7 /// NADSYN1 (11734609_at) / Fold change /veh KRTAP5-7 /// NADSYN1 (11734609_at) / RFU RASL12 (11751679_a_at) / Fold change /veh RASL12 (11751679_a_at) / RFU CDKN2B (11736163_a_at) / Fold change /veh CDKN2B (11736163_a_at) / RFU PRF1 (11729649_at) / Fold change /veh PRF1 (11729649_at) / RFU, ZNF638 /// ZNF638-IT1 / Fold change vs veh, ZNF638 /// ZNF638-IT1 / RFU, PANK3 / Fold change vs veh, PANK3 / RFU, SH3YL1 / Fold change vs veh, SH3YL1 / RFU, ZEB2 / Fold change vs veh, ZEB2 / RFU, NRIP1 / Fold change vs veh, NRIP1 / RFU, PTTG1IP / Fold change vs veh, PTTG1IP / RFU, CAPN2 / Fold change vs veh, CAPN2 / RFU, MED14 / Fold change vs veh, MED14 / RFU, SNORA58 / Fold change vs veh, SNORA58 / RFU, C1orf63 / Fold change vs veh, C1orf63 / RFU, LRRFIP1 / Fold change vs veh, LRRFIP1 / RFU, NDUFAF7 / Fold change vs veh, NDUFAF7 / RFU, SLC12A2 / Fold change vs veh, SLC12A2 / RFU, IBTK / Fold change vs veh, IBTK / RFU, ESF1 / Fold change vs veh, ESF1 / Fold change vs veh, TMEM50B / RFU, TAOK1 / Fold change vs veh, TAOK1 / RFU, ACBD3 / Fold change vs veh, ACBD3 / RFU, TMA16 / Fold change vs veh, TMA16 / RFU, RWDD3 / Fold change vs veh, RWDD3 / RFU, BCAT1 / Fold change vs veh, BCAT1 / RFU, EDEM3 / Fold change vs veh, EDEM3 / RFU, TMEM33 / Fold change vs veh, TMEM33 / RFU, WDR75 / Fold change vs veh, WDR75 / RFU, AHCTF1 / Fold change vs veh, AHCTF1 / RFU, TFRC / Fold change vs veh, TFRC / RFU, ZDHHC17 / Fold change vs veh, ZDHHC17 / RFU, NOM1 / Fold change vs veh, NOM1 / RFU, ARL8B / Fold change vs veh, ARL8B / RFU, ZBTB11 / Fold change vs veh, ZBTB11 / RFU, TAMM41 / Fold change vs veh, TAMM41 / RFU, KIAA1704 /// LOC100996395 / Fold change vs veh, KIAA1704 /// LOC100996395 / RFU, ING1 / Fold change vs veh, ING1 / RFU, TRMT61B / Fold change vs veh, TRMT61B / RFU, FUBP3 / Fold change vs veh, FUBP3 / RFU, TP53 / Fold change vs veh, TP53 / RFU, TNKS2 / Fold change vs veh, TNKS2 / RFU, ZFP14 / Fold change vs veh, ZFP14 / RFU, ACTR2 / Fold change vs veh, ACTR2 / RFU, PPP3R1 / Fold change vs veh, PPP3R1 / RFU, PIK3R1 / Fold change vs veh, PIK3R1 / RFU, HNRNPA1 / Fold change vs veh, HNRNPA1 / RFU, RNF170 / Fold change vs veh, RNF170 / RFU, ZNF28 / Fold change vs veh, ZNF28 / RFU, RNGTT / Fold change vs veh, RNGTT / RFU, OGT / Fold change vs veh, OGT / RFU, BRD1 / Fold change vs veh, BRD1 / RFU, MARS / Fold change vs veh, MARS / RFU, ZNF655 / Fold change vs veh, ZNF655 / RFU, FAHD1 / Fold change vs veh, FAHD1 / RFU, BDP1 / Fold change vs veh, BDP1 / RFU, LRRCC1 / Fold change vs veh, LRRCC1 / RFU, ARID1A / Fold change vs veh, ARID1A / RFU, ZNF146 / Fold change vs veh, ZNF146 / RFU, ZNF330 / Fold change vs veh, ZNF330 / RFU, GPN3 / Fold change vs veh, GPN3 / RFU, C9orf123 / Fold change vs veh, C9orf123 / RFU, N4BP2L2 / Fold change vs veh, N4BP2L2 / RFU, ARFIP1 / Fold change vs veh, ARFIP1 / RFU, FAM179B / Fold change vs veh, FAM179B / RFU, BCL10 / Fold change vs veh, BCL10 / RFU, UHRF1BP1L / Fold change vs veh, UHRF1BP1L / RFU, BET1 / Fold change vs veh, BET1 / RFU, CNOT2 / Fold change vs veh, CNOT2 / RFU, ZNF268 / Fold change vs veh, ZNF268 / Fold change vs veh, ZNF507 / RFU, DGCR2 / Fold change vs veh, DGCR2 / RFU, WDSUB1 / Fold change vs veh, WDSUB1 / Fold change vs veh, HSP90B1 /// MIR3652 / RFU, ADSS / Fold change vs veh, ADSS / RFU, GK / Fold change vs veh, GK / RFU, ZNF148 / Fold change vs veh, ZNF148 / RFU, TAF9 / Fold change vs veh, TAF9 / RFU, SLC1A5 / Fold change vs veh, SLC1A5 / RFU, SLMO2 / Fold change vs veh, SLMO2 / RFU, ABCC4 / Fold change vs veh, ABCC4 / RFU, LOC101060439 /// RAP1B / Fold change vs veh, LOC101060439 /// RAP1B / RFU, RFX7 / Fold change vs veh, RFX7 / RFU, GTPBP10 / Fold change vs veh, GTPBP10 / RFU, CNEP1R1 / Fold change vs veh, CNEP1R1 / RFU, BIVM-ERCC5 /// ERCC5 / Fold change vs veh, BIVM-ERCC5 /// ERCC5 / RFU, ILF3 / Fold change vs veh, ILF3 / RFU 11762660_at / Fold change /veh 11762660_at / RFU VCAN (11757783_s_at) / Fold change /veh VCAN (11757783_s_at) / RFU DDX43 (11728927_at) / Fold change /veh DDX43 (11728927_at) / RFU KRT8 (11758188_x_at) / Fold change /veh KRT8 (11758188_x_at) / RFU NKD1 (11759106_at) / Fold change /veh NKD1 (11759106_at) / RFU SRD5A1 (11742802_a_at) / Fold change /veh SRD5A1 (11742802_a_at) / RFU TPSAB1 /// TPSB2 (11721975_s_at) / Fold change /veh TPSAB1 /// TPSB2 (11721975_s_at) / RFU GSTM3 (11746129_a_at) / Fold change /veh GSTM3 (11746129_a_at) / RFU IL23R (11737362_x_at) / Fold change /veh IL23R (11737362_x_at) / RFU TMEM51 (11727254_a_at) / Fold change /veh TMEM51 (11727254_a_at) / RFU PIWIL2 (11732686_x_at) / Fold change /veh PIWIL2 (11732686_x_at) / RFU ORM1 (11744905_x_at) / Fold change /veh ORM1 (11744905_x_at) / RFU CCDC152 (11743942_at) / Fold change /veh CCDC152 (11743942_at) / RFU ECM1 (11717891_a_at) / Fold change /veh ECM1 (11717891_a_at) / RFU IL23R (11748794_a_at) / Fold change /veh IL23R (11748794_a_at) / RFU TNFAIP8L3 (11732012_x_at) / Fold change /veh TNFAIP8L3 (11732012_x_at) / RFU MBOAT4 (11741988_at) / Fold change /veh MBOAT4 (11741988_at) / RFU 11764193_at / Fold change /veh 11764193_at / RFU TMEM53 (11763286_at) / Fold change /veh TMEM53 (11763286_at) / RFU MAGEB2 (11727129_at) / Fold change /veh MAGEB2 (11727129_at) / RFU TMEM200A (11744735_a_at) / Fold change /veh TMEM200A (11744735_a_at) / RFU CCDC152 (11751479_a_at) / Fold change /veh CCDC152 (11751479_a_at) / RFU FAM211A (11726209_a_at) / Fold change /veh FAM211A (11726209_a_at) / RFU RGS16 (11746705_a_at) / Fold change /veh RGS16 (11746705_a_at) / RFU VCAN (11755009_s_at) / Fold change /veh VCAN (11755009_s_at) / RFU RHOB (11743442_s_at) / Fold change /veh RHOB (11743442_s_at) / RFU RGS16 (11720943_a_at) / Fold change /veh RGS16 (11720943_a_at) / RFU RGS16 (11720944_at) / Fold change /veh RGS16 (11720944_at) / RFU, VPS4B / Fold change vs veh, VPS4B / RFU, CREB1 / Fold change vs veh, CREB1 / RFU, DNAJC13 / Fold change vs veh, DNAJC13 / RFU, GNAQ / Fold change vs veh, GNAQ / RFU, CDK5R1 / Fold change vs veh, CDK5R1 / RFU, ZRANB3 / Fold change vs veh, ZRANB3 / RFU, CUL4A / Fold change vs veh, CUL4A / RFU, CCNY / Fold change vs veh, CCNY / RFU, UFL1 / Fold change vs veh, UFL1 / RFU, COG3 / Fold change vs veh, COG3 / RFU, DIAPH2 / Fold change vs veh, DIAPH2 / RFU, SKA2 / Fold change vs veh, SKA2 / RFU, AFF3 / Fold change vs veh, AFF3 / RFU, LMF1 / Fold change vs veh, LMF1 / RFU, IPO11 / Fold change vs veh, IPO11 / RFU, DFFB / Fold change vs veh, DFFB / RFU, FOXP1 / Fold change vs veh, FOXP1 / RFU, CARD8 / Fold change vs veh, CARD8 / RFU, STRN3 / Fold change vs veh, STRN3 / RFU, ADK / Fold change vs veh, ADK / RFU, RASSF2 / Fold change vs veh, RASSF2 / RFU, WIPF1 / Fold change vs veh, WIPF1 / RFU, LARP1B / Fold change vs veh, LARP1B / RFU, RASA1 / Fold change vs veh, RASA1 / RFU, RB1 / Fold change vs veh, RB1 / RFU, PPFIA1 / Fold change vs veh, PPFIA1 / RFU, MAT2A / Fold change vs veh, MAT2A / RFU, CCT5 / Fold change vs veh, CCT5 / RFU, WDR92 / Fold change vs veh, WDR92 / RFU, CUX1 / Fold change vs veh, CUX1 / RFU, TTC7A / Fold change vs veh, TTC7A / RFU, TMEM135 / Fold change vs veh, TMEM135 / RFU, DEPTOR / Fold change vs veh, DEPTOR / RFU, CPM / Fold change vs veh, CPM / RFU, DNAJB6 / Fold change vs veh, DNAJB6 / RFU, CACNA2D3 / Fold change vs veh, CACNA2D3 / RFU, DTX4 / Fold change vs veh, DTX4 / RFU, TFCP2 / Fold change vs veh, TFCP2 / RFU, GMCL1 /// GMCL1P1 / Fold change vs veh, GMCL1 /// GMCL1P1 / RFU, AEBP2 / Fold change vs veh, AEBP2 / RFU, SNHG1 /// SNORD22 /// SNORD25 /// SNORD26 /// SNORD27 /// SNORD28 /// SNORD29 /// SNORD31 / Fold change vs veh, SNHG1 /// SNORD22 /// SNORD25 /// SNORD26 /// SNORD27 /// SNORD28 /// SNORD29 /// SNORD31 / Fold change (Aza/veh), C12orf56 (ProbeSet 11735607_a_at) / Fold change (ACY-1035/veh), C12orf56 (ProbeSet 11735607_a_at) / Fold change (Aza/veh), FGFR1OP (ProbeSet 11751329_s_at) / Fold change (ACY-1035/veh), FGFR1OP (ProbeSet 11751329_s_at) / Fold change (Aza/veh), VPS36 (ProbeSet 11739960_a_at) / Fold change (ACY-1035/veh), VPS36 (ProbeSet 11739960_a_at) / RFU SYPL1 (11715823_x_at) / Fold change /veh SYPL1 (11715823_x_at) / RFU IGFBP7 (11715501_s_at) / Fold change /veh IGFBP7 (11715501_s_at) / RFU REEP3 (11722064_at) / Fold change /veh REEP3 (11722064_at) / RFU IGLL1 (11728026_x_at) / Fold change /veh IGLL1 (11728026_x_at): dose or concentration left out as unconfirmed. The settings on record: MV-4-11 cells, 48 hours.

On to `Nc1ncn([C@@H]2O[C@H](CO)[C@@H](O)[C@H]2O)c(=O)n1` [azacitidine], for which the “RFU TPSAB1 /// TPSB2 (11721975_s_at)” value came out at 24.54 RFU.
